Key:
[1] = tested on: Hela (human cervical carcinoma cell line); assay: MTT antiproliferative assay, Hela; format: cell-based; details: 72 h
Source text: (§1) All the synthesized compounds were screened for in vitro antiproliferative activity against four human cancer cell lines A549 (human lung cancer cell line), KB (human oral epidermoid carcinoma cell line), Hela (human cervical carcinoma cell line), MCF-7 (human breast cancer cell line) and two human normal cell lines HUVEC (human umbilical vein endothelial cell) and LO2 (human normal hepatocytes) through the 3-(4,5-dimethyl-2-thiazolyl)-2,5-diphenyl-2-H-tetrazolium bromide (MTT) assay.
(§2) Non-small-cell lung cancer (A549), oral epidermoid carcinoma (KB), cervical cancer (Hela) and breast cancer (MCF-7) cells were purchased from the American Type Culture Collection (ATCC, America). Human umbilical vein endothelial cell (HUVEC) and human normal hepatocytes (LO2) cells were provided by Guangzhou Medical University (Guangzhou, China). A549 and KB cells were cultured in RMPI-1640 medium (Gibco, America). Hela, MCF-7 and LO2 cells were cultured in DMEM medium (Gibco, America). HUVEC cells were cultured in Ham’s F-12K medium (Gibco, America). All the mediums were supplemented with 10% fetal bovine serum (FBS) (BI, State of Israel), 100 U/mL penicillin and 100 μg/mL streptomycin (Gibco, America), and all the cells were incubated in a sterile incubator at 37°C in an environment of 5% CO2. The tested compounds were dissolved in dimethyl sulfoxide (DMSO) at a concentration of 10 mM, and then diluted into different concentration of solutions by culture medium. The final concentration of DMSO was <0.01% (v/v) in all drug treatment groups to avoid the toxicity in the biological system. Untreated cells were used as a blank control and 5-fluorouracil treated cells were used as a positive control.
(§3) The incubated tumor cells were planted into 96-well plates (4×10^3 cells/well). After 24 h, the cells were adherent to the wall and treated with the compound 6e in different concentrations (0.78, 1.56, 3.12, 6.25, 12.50, 25.00, and 50.00 μM) for 72 h. Afterwards, the medium was supplemented with 10 µL MTT solution. After 4 h, the culture medium was removed and 100 µL DMSO was added. The absorbance was determined at the wavelength of 540 nm and 655 nm using a microplate reader (BioTek Epoch, America). The results were collected from three independent experiments. The IC50 was then calculated by using GraphPad Prism Software (version 7.0) and non-linear regression (curve fit).

[2] = tested on: MCF-7 (human breast cancer cell line); assay: MTT antiproliferative assay, MCF-7; format: cell-based; details: MCF7, 72 h
Source text: as §1, §2, §3

KB cells = assay: JC-1 mitochondrial membrane potential (MMP) assay; format: cell-based, human; details: increasing concentration (0.5 IC50, IC50, 2 IC50), 48 h
Source text: According to the predicted results of network pharmacology, compound 6e might stimulate the oxidative stress response of cancer cells. Oxidative stress reflects an imbalance between excessive production of reactive free radical and deficits in antioxidant biosystem ([Zhong et al., 2018]). Mitochondria are the main reactors that produce reactive free radicals in cells, and MMP is a key indicator of mitochondrial activity. Excessive oxidative stress can cause a decrease in MMP, which leads to the damage of mitochondrial. It is well-known that mitochondrial damage is a major trigger for the induction of cell apoptosis and necrosis ([Kharroubi et al., 2017]; [Meng et al., 2021]). Therefore, JC-1 staining was used to investigate the effect of compound 6e on the MMP (ΔΨm) of KB cells. In normal cells, JC-1 can form aggregates in healthy mitochondria, emitting red fluorescence, while in apoptotic cells, JC-1 will stay in monomers that emit green fluorescence, implying a low value of ΔΨm. Therefore, mitochondrial depolarization is manifested by a decrease in the ratio of red to green fluorescence intensity.
MMP was determined using the JC-1 mitochondria staining Kit (Aladdin, China). […] On one hand, JC-1 red and green fluorescence intensities were measured with Varioskan™ LUX Multimode Microplate Reader (Thermo Fisher Scientific, America) under the […]. […]

PI3K in KB cells = assay: Western blot, PI3K; format: cell-based, human; details: 0.40, 0.80, 1.60 μM, 24 h
Source text: Based on the results of network pharmacology, the key proteins related to PI3K/AKT pathway were detected by Western blotting to explore the antitumor mechanism of compound 6e. […] Such an inconsistency might be due to a compensatory increase in PI3K level after the reduction of AKT phosphorylation level. Additionally, the active-caspase 3 protein, anti-apoptosis protein Bcl-2 and pro-apoptosis protein Bax were further analyzed. Caspase-3 normally exists in the cytoplasm as zymogen. During the early stage of apoptosis, caspase-3 (32 KD) is cleaved to the active 17-kD caspase-3 fragment, which is responsible for morphological and biochemical changes in apoptosis. Bcl-2 and Bax are the […] located on the mitochondrial membrane and capable of controlling the MMP (ΔΨm) and the activation of caspase cascade.
A total of 4 × 10^5 KB cells were seeded into 6-well and grown for overnight. Then the cells adherent to the wall were treated with compound 6e in different concentrations (0, 0.40, 0.80, 1.60 μM) for 24 h. After that, cells were collected, SDS lysate, 100X protease inhibitor and 50X phosphorylation inhibitor were added in a certain proportion to lyse the cells. The protein content was determined by BCA reagent (Beyotime, China) according to the standard curve. […]

IC50 [1]: 1.82 ± 0.22 µM
IC50 [2]: 14.8 ± 0.28 µM
melting point: 223 to 225 °C
Structure (SMILES): O=CC=C(Cl)c1cc2ccc(OCc3ccccc3)cc2oc1=O [Compound 6e, 3-(7-(Benzyloxy)-2-oxo-2H-chromen-3-yl)-3-chloroacrylaldehyde]
JC-1 ratio (red to green fluorescence) (KB cells): significant decrease
relative PI3K level among the control and treatment groups (PI3K in KB cells): not significantly different

— PMC10076643, “Design, synthesis and anticancer activity studies of 3-(coumarin-3-yl)-acrolein derivatives: Evidenced by integrating network pharmacology and vitro assay” (Frontiers in Pharmacology, 2023)
